Assay [1] concerns the target T1, Orexin receptor type 2 (Homo sapiens) (UniProt O43614).
T1 sequence (whole entry): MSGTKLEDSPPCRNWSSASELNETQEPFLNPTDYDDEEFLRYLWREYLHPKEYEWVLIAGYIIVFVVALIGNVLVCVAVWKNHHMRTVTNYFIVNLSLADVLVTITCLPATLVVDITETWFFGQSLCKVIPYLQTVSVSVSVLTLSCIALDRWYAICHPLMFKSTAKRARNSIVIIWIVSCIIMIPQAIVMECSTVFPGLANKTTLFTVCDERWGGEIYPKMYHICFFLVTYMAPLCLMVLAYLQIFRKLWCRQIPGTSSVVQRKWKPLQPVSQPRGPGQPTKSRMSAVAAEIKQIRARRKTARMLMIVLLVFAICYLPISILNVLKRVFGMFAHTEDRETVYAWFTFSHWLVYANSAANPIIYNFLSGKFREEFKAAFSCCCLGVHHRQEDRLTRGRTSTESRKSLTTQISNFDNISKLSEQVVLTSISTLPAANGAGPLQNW
Briefly: Agonist activity at human orexin 2 receptor expressed in CHO cells assessed as increase in calcium mobilization incubated for 120 secs by Fluo-4AM dye based fluorescence assay. The class given is functional, cell-based. The note with it: time 120.0 sec.

The target of assay [2] is T2, Orexin/Hypocretin receptor type 1 (Homo sapiens, UniProt O43613).
T2 sequence (O43613 whole entry): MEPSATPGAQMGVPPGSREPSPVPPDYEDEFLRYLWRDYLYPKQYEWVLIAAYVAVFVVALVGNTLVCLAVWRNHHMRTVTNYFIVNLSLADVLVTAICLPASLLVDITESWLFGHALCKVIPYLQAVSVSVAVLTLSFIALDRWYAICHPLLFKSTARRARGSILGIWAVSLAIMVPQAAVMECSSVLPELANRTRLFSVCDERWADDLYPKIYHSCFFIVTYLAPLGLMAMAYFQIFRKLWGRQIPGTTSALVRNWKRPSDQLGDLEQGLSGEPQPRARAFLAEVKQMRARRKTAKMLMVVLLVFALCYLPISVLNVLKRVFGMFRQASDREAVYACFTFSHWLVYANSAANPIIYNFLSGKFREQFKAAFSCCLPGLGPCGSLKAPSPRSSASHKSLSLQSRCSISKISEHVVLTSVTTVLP
Put plainly: (§1) Displacement of [3H]-[…] from human orexin 1 receptor expressed in CHO cells incubated for 2 hrs by whole cell radioligand binding assay. The class given is cell-based. A general note: Loss of bound radioactivity is the signal in a displacement assay; it reports binding, not function.

Assay [3] deals with T3, Orexin/Hypocretin receptor type 1 (Homo sapiens) (UniProt O43613).
T3 sequence (whole entry): T2 sequence (O43613 whole entry)
The note with it: CHO, time 120.0 sec.
Description: Agonist activity at human orexin 1 receptor expressed in CHO cells assessed as increase in calcium mobilization incubated for 120 secs by Fluo-4AM dye based fluorescence assay

Assay [4] is described as follows: (§2) Displacement of [3H]-EMPA from human orexin 2 receptor expressed in CHO cells incubated for 2 hrs by whole cell radioligand binding assay. It counts as cell-based.
Assay [5] has as its target T3, Orexin/Hypocretin receptor type 1 (Homo sapiens). Described as §1. The class given is cell-based.
For assay [6], the species on record is Homo sapiens. Described as §2. The class given is cell-based.

Active and inactive are the calls of the source.

One may read the Ki as a measure of affinity in units of concentration, obtained from inhibition or displacement. A lower Ki goes with a stronger hold on the target. By pKi is commonly meant the negative decadic logarithm of the Ki, by convention in mol/L. Broadly, the IC50 is the concentration that inhibits the measured activity by half. Lower therefore signals greater potency in that assay.

Regarding `O=C1NC(=O)C(=Cc2c(OCc3ccccc3F)ccc3ccccc23)C(=O)N1`, the pEC50 result in assay [1] is “inactive”.
`Cc1ccccc1CN(C)C(=O)Cc1csc(-c2cccc(F)c2)n1` showed a Ki in assay [2] of 3.24 µM. The pEC50 entry in assay [3] and in assay [1] was “inactive” in each case. The negative logarithm of the Ki (pKi) in assay [4] is 6.18.
`Cc1ccc2[nH]c(C)c(CC(=O)N(Cc3cccnc3)C3CC3)c2c1`: the pEC50 entry in assay [3] and in assay [1] was “inactive” throughout.
`Cc1cc(=O)oc2cc(OCC(=O)c3cccc4ccccc34)ccc12`: the pKi entry in assay [5] and in assay [6] was “inactive” in each case.
`Cc1[nH]c2ccccc2c1[C@@H]1c2ccccc2C(=O)N1CCC(=O)N1CCN(c2ccccn2)CC1` yielded an IC50 in assay [2] of over 100 µM. In assay [1], the pEC50 entry was “inactive”.
As to `Cc1noc(CN2CCN(C(=O)c3cc4ccccn4c3)CC2)n1`, the pKi entry in assay [5] and in assay [6] was “inactive” throughout.
In the case of `COc1ccc2c(c1)c1c(c(=O)n(Cc3ccccc3)c(=O)n1Cc1cc(=O)n3ccccc3n1)n2C`, the pKi entry in assay [5] and in assay [6] was “inactive” throughout.
In assay [2], `Cc1ccc(-c2nc(CC(=O)N(C)[C@@H](C)c3ccc(F)cc3)cs2)o1` showed a Ki of 17 µM. For the same compound, the pEC50 result in assay [3] and in assay [1] was “inactive” each time. In assay [4], the pKi worked out at 5.53.
`Cc1ccc(C(=O)Oc2ccc(N3C(=O)[C@H]4C5C=CC(C6CC65)[C@@H]4C3=O)cc2)cc1` (some centres not stated): the pKi entry in assay [5] and in assay [6] was “inactive” each time.
For the compound `COc1ccc([C@H]2CCCN2C(=O)c2ccc(OCc3cn4ccccc4n3)cc2)c(OC)c1`, the affinity in assay [2], expressed as Ki, was 20.9 µM. Further, the pEC50 entry in assay [1] was “inactive”.
Consider `COc1ccc(-n2nc(C(=O)NCCc3ccc(Cl)cc3)c3c4ccccc4n(C)c3c2=O)cc1`, for which the pKi result in assay [5] and in assay [6] was “inactive” each time.
For `COc1cccc(C(=O)COc2ccc3c(C)c(C)c(=O)oc3c2)c1`, the pKi entry in assay [5] and in assay [6] was “inactive” in each case.
`Cc1ccc(N2CCCN(C(=O)c3cn(C)c4ccccc34)CC2)nn1` came in with a concentration for half-maximal inhibition (IC50) in assay [2] of over 100 µM. The pEC50 entry in assay [1] is “inactive”.
Take `Cc1ccc(C)c(OCC(=O)Oc2ccc3c(C)cc(=O)oc3c2)c1`: the pKi entry in assay [5] and in assay [6] was “inactive” in each case.
For the compound `CCc1c(C)c2ccc(OCC(=O)c3ccc(F)cc3)cc2oc1=O`, the pKi result in assay [5] and in assay [6] was “inactive” in each case.
Turning to `O=S(=O)(c1ccc(-c2noc(-c3ccco3)n2)cc1)N1CCCCC1`, the pKi entry in assay [5] and in assay [6] was “inactive” in each case.
`O=C(COc1ccc(-c2ccccc2)cc1)c1ccc(O)cc1O`: the pKi result in assay [5] and in assay [6] was “inactive” each time. Also, the pEC50 entry in assay [1] is “inactive”.
Regarding `CS(=O)(=O)N1CCc2cc(S(=O)(=O)N3CCN(Cc4ccc5c(c4)OCO5)CC3)ccc21`, the pKi entry in assay [5] and in assay [6] was “inactive” in each case.
With `COc1cc(=O)n2c(c1C(=O)N(C)[C@@H](C)c1ccco1)CCN(C(=O)c1c(F)cccc1F)CC2`, the pKi result in assay [5] and in assay [6] was “inactive” in each case.
`O=C(c1ccc(N2C(=O)CCC2=O)cc1)N1CCN(Cc2nc(C3CC3)cs2)CC1`: the pKi entry in assay [5] and in assay [6] was “inactive” in each case.
Consider `Cc1nn(-c2ccccc2)c(C)c1C(=O)O[C@@H](C(N)=O)c1ccccc1`, for which the pKi result in assay [5] and in assay [6] was “inactive” throughout.
Consider `O=S(=O)([N-]c1nc2ccccc2nc1-[n+]1ccc(Oc2ccccc2)cc1)c1ccccc1`, for which the pKi result in assay [5] and in assay [6] was “inactive” throughout.
Compound `O=C(c1ccccc1Cc1ccccc1)N1CCN(Cc2csc(-c3ccco3)n2)CC1` had an inhibition constant (Ki) in assay [2] of 14.8 µM. Also, the pEC50 entry in assay [1] was “inactive”.
As to `Cc1ccc2c(c1)C(=O)N(CCC(=O)N1CCCc3ccccc31)C2=O`, the pKi entry in assay [5] and in assay [6] was “inactive” in each case.
In the case of `O=C(c1ccc(Cl)c(N2CCCC2=O)c1)N1CCN(Cc2cc(=O)n3ccsc3n2)CC1`, the pKi entry in assay [5] and in assay [6] was “inactive” each time.
`O=C(CCCN1C(=O)c2cccc3cccc(c23)C1=O)Oc1ccc(F)cc1`: the pKi entry in assay [5] and in assay [6] was “inactive” throughout.
As to `COc1cc([C@H]2c3c(oc4ccccc4c3=O)C(=O)N2Cc2ccc(F)cc2)cc(OC)c1OC`, the pKi entry in assay [5] and in assay [6] was “inactive” each time.
Consider `O=C(CCCn1cnc2ccccc2c1=O)NCc1ccccn1`, for which the pKi entry in assay [5] and in assay [6] was “inactive” in each case.
Take `N[C@H]1CCCN(C(=O)c2cc(-c3ccccc3)nc3ccccc23)CC1`: the pKi result in assay [5] and in assay [6] was “inactive” in each case.
For the compound `CCOc1ccc(-c2n[nH]c3c2[C@H](c2ccccc2OC)NC3=O)cc1`, the pKi result in assay [5] and in assay [6] was “inactive” in each case.
Turning to `O=C(C1CC1)N1CCC[C@@H](Cn2cc(-c3cnc(-c4ccco4)nc3)nn2)C1`, the pKi entry in assay [5] and in assay [6] was “inactive” throughout.
On to `C=CCOc1cccc([C@H]2c3c(oc4ccc(C)cc4c3=O)C(=O)N2Cc2ccco2)c1`, for which the pKi result in assay [5] and in assay [6] was “inactive” each time.
As to `COc1cc2cc(C(=O)N3CCN(Cc4ccc5c(c4)OCO5)CC3)c(=O)oc2cc1OC`, the pKi result in assay [5] and in assay [6] was “inactive” each time.
In the case of `O=C(Oc1cccc2c(OC(=O)c3ccco3)cccc12)c1ccco1`, the pKi result in assay [5] and in assay [6] was “inactive” in each case.
Consider `Cc1cc(C(C)(C)C)cc(C)c1Cn1cnc2c1c(=O)n(C)c(=O)n2C`, for which the pKi entry in assay [5] and in assay [6] was “inactive” in each case.
Take `COc1cc([C@H]2c3c(oc4ccc(Cl)cc4c3=O)C(=O)N2Cc2ccccc2)ccc1O`: the pKi entry in assay [5] and in assay [6] was “inactive” in each case.
Take `Cc1ccccc1OC[C@@H]1CCCN(C(=O)CCc2nc(-c3ccccn3)no2)C1`: in assay [2], the Ki is 15.1 µM. Besides, the pEC50 entry in assay [1] is “inactive”.
For `O=C(CCCn1nnc2ccccc2c1=O)NCc1ccccn1`, the pKi entry in assay [5] and in assay [6] was “inactive” throughout.
As for `C[C@H](NC(=O)[C@H]1CC(=O)N(c2ccc3c(c2)CCC3)C1)c1cccnc1`, the pKi entry in assay [5] and in assay [6] was “inactive” each time.
Turning to `Cc1ccc(-c2nc(CC(=O)N(C)Cc3c(F)cccc3Cl)cs2)o1`, in assay [2], the Ki is 11.7 µM. Also, the pEC50 entry in assay [3] and in assay [1] was “inactive” in each case. In addition, the pKi in assay [4] stood at 5.55.
In the case of `CCc1cc2c(=O)c(-c3ccc4c(c3)OCCCO4)coc2cc1OC(=O)N1CCOCC1`, the pKi result in assay [5] and in assay [6] was “inactive” throughout.
On to `COc1cccc([C@H]2c3c(oc4ccccc4c3=O)C(=O)N2Cc2ccccc2)c1`, for which the pKi result in assay [5] and in assay [6] was “inactive” throughout.
On to `O=C(c1ccc(-c2nc3ccccc3s2)o1)N(Cc1ccco1)Cc1ccco1`, for which the affinity in assay [2], expressed as Ki, was 3.55 µM. For the same compound, the pEC50 entry in assay [3] and in assay [1] was “inactive” throughout. This compound yielded a pKi in assay [4] of 5.5.
As to `O=C(C1=NN([C@H]2CCS(=O)(=O)C2)C(=O)CC1)N(CCc1ccccc1)c1nc2ccccc2s1`, the IC50 in assay [2] is over 100 µM. Moreover, the pEC50 result in assay [1] was “inactive”.
With `O=C(c1cn(Cc2ccc(F)cc2)cc2c(=O)n(-c3ccccc3)nc1-2)N1CCc2ccccc21`, the pKi result in assay [5] and in assay [6] was “inactive” throughout.
For the compound `COc1ccc(CN2C(=O)c3ccccc3C2=O)cc1C(=O)OCc1cc(=O)n2ccsc2n1`, the pKi entry in assay [5] and in assay [6] was “inactive” throughout.
With `COc1cccc(COc2ccc(-c3noc(-c4ccco4)n3)cc2OC)c1`, the pKi result in assay [5] and in assay [6] was “inactive” each time.
For the compound `Cc1cccc(-n2cc(C(=O)N3CCC[C@@H]([n+]4cc[nH]c4)C3)nn2)c1`, the pKi result in assay [5] and in assay [6] was “inactive” each time.
As for `O=C(c1sc2cccc(F)c2c1Cl)N1CCN(Cc2ccco2)CC1`, the pEC50 entry in assay [1] was “inactive”.
Turning to `O=C(CCc1nc(-c2ccccn2)no1)OCc1ccccn1`, the pKi result in assay [5] and in assay [6] was “inactive” in each case.

The record behind these values is ChEMBL document CHEMBL4725416, “Structure-Based Discovery of Novel Ligands for the Orexin 2 Receptor” (J Med Chem, 2020).
